{"source": "patent US9290457B2", "about": "“Substituted dihydropyrimidinones and their use as inhibitors of neutrophil elastase activity” (Boehringer Ingelheim International GmbH, priority 2014, dated 2016)", "key": {"neutrophil elastase": {"target": "neutrophil elastase (Homo sapiens (Human), UniProt P08246)", "sequence (P08246 30-247)": "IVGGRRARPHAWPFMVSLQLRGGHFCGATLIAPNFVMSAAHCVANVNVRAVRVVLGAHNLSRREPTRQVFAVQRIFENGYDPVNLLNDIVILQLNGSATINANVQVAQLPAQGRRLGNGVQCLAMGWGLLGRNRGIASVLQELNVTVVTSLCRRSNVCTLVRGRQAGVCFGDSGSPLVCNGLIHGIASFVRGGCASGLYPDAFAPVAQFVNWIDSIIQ", "experiment": "Human Neutrophil Elastase Assay", "type": "biochemical", "conditions": "substrate MeOSuc-Ala-Ala-Pro-Val-AMC"}, "[1]": {"experiment": "Drug transport across human Caco-2 cells", "type": "in vitro ADME", "conditions": "human, Caco-2, pH 7.2, 37° C.; for Papp A→B at 10 μM: apical-to-basal, read-out: PEAB; for Papp B→A at 10 μM: basal-to-apical, read-out: PEBA", "text": "(§1) Assay for Determination of Drug Transport Across Human Caco-2 Cells\n(§2) The assay provides information on the potential of a compound to pass the cell membrane, on the extent of oral absorption as well as on whether the compound is actively transported by uptake and/or efflux transporters. For the measurement of permeability across polarized, confluent human cancer colon carcinoma cells 2 (Caco-2) cell monolayers grown on permeable filter supports are used as the in vitro absorption model.\n(§3) Apparent permeability coefficients (PE) of the compounds across the Caco-2 monolayers are measured (pH 7.2, 37° C.) in apical-to-basal (AB) (absorptive) and basal-to-apical (BA) (secretory) transport direction. AB permeability (PEAB) represents drug absorption from the intestine into the blood and BA permeability (PEBA) drug secretion from the blood back into the intestine via both passive permeability as well as active transport mechanisms mediated by efflux and uptake transporters that are expressed on the Caco-2 cells. The compounds are assigned to permeability/absorption classes by comparison of the AB permeabilities with the AB permeabilities of reference compounds with known in vitro permeability and oral absorption in the human. Identical or similar permeabilities in both transport directions indicate passive permeation, vectorial permeability points to additional active transport mechanisms. […] Active transport is concentration-dependently saturable.\n(§4) Caco-2 cells (1-2*10^5 cells/cm^2 area) are seeded on filter inserts (Costar transwell polycarbonate or PET filters, 0.4 μm pore size) and cultured (DMEM) for 10 to 25 days. Compounds are dissolved in appropriate solvent (like DMSO, 1-20 mM stock solutions). Stock solutions are diluted with HTP-4 buffer (128.13 mM NaCl, 5.36 mM KCl, 1 mM MgSO4, 1.8 mM CaCl2, 4.17 mM NaHCO3, 1.19 mM Na2HPO4x7H2O, 0.41 mM NaH2PO4xH2O, 15 mM HEPES, 20 mM glucose, pH 7.2) to prepare the transport solutions (typically 10 μM compound, final DMSO<=0.5%). The transport solution (TL) is applied to the apical or basolateral donor side for measuring A-B or B-A permeability (3 filter replicates), respectively. The receiver side contains HTP-4 buffer supplemented with 2% BSA. Samples are collected at the start and end of experiment from the donor and at various time intervals for up to 2 hours also from the receiver side for concentration measurement by LC-MS/MS or scintillation counting. Sampled receiver volumes are replaced with fresh receiver solution.\n(§5) The apparent permeability coefficients (PEAB and PEBA) of selected compounds in the Caco-2 drug transport assay described above are listed in Table 5."}, "[2]": {"target": "hERG (human ether-a-go-go-related gene) potassium channel (Homo sapiens (Human), UniProt Q12809)", "sequence (Q12809 whole entry)": "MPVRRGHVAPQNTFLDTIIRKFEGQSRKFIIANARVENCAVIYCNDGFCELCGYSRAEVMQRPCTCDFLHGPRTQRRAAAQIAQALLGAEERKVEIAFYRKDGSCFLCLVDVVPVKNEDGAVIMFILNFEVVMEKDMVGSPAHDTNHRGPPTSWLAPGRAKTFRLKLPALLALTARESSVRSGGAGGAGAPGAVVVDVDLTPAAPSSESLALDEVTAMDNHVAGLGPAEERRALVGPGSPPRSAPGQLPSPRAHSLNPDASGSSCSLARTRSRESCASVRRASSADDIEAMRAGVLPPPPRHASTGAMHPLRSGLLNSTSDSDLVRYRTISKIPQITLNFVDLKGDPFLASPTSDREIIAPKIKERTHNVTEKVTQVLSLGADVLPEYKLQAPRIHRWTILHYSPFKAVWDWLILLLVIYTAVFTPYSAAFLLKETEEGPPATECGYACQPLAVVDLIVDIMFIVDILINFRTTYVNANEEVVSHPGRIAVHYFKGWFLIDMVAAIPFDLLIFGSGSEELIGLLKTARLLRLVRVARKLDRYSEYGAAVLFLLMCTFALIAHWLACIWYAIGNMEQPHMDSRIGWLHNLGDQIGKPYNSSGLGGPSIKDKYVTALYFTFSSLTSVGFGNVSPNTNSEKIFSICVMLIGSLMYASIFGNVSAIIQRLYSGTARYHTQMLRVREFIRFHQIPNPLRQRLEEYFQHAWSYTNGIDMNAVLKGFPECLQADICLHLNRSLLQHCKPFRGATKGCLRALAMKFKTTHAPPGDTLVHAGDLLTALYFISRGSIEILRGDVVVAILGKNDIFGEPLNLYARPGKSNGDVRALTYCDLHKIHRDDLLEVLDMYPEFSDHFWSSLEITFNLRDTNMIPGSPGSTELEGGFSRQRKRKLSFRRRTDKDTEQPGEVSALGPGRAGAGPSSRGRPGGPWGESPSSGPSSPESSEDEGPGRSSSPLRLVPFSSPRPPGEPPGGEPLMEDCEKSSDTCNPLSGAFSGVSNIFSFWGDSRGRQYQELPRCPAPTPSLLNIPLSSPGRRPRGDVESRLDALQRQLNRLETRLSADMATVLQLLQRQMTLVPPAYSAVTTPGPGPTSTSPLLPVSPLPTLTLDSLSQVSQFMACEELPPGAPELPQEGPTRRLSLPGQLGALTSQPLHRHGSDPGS", "experiment": "hERG inhibition patch clamp assay", "type": "cell-based", "text": "Calculations: Fold induction=(Enzyme mRNA Compound)/(Enzyme mRNA Solvent Control) Inducer Potency=(Fold Compound)/(Fold Rifampicin)*100 Assay for Determination of hERG Inhibition\nThe inhibition of the hERG (human ether-a-go-go-related gene) potassium channel can be determined as described in Rast, G., & Guth, B. D., Journal of Pharmacological and Toxicological Methods (2014), http://dx.doi.org/10.1016/j.vasen.2014.08.001."}, "cytochrome P450 2C19": {"target": "cytochrome P450 2C19 (Homo sapiens (Human), UniProt P33261)", "sequence (P33261 whole entry)": "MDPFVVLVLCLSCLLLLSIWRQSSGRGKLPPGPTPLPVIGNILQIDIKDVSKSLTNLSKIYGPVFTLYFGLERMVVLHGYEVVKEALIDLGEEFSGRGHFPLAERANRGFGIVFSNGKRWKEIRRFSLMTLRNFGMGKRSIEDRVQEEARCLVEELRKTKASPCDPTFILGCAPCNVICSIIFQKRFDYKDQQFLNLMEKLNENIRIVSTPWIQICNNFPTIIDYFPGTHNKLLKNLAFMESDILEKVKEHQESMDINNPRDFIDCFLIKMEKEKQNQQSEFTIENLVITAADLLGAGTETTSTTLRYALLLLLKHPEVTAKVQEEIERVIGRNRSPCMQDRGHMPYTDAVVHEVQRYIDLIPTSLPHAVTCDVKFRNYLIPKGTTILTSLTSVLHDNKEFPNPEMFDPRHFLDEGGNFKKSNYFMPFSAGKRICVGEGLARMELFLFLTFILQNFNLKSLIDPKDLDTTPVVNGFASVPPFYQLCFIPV", "experiment": "Cytochrome P450 2C19 inhibition", "type": "in vitro ADME", "conditions": "human liver microsomes, Mephenytoin hydroxylation; read-out: IC50 CYP2C19 inhibition", "protocol": "Assay for Determination of Cytochrome P450 2C19 Inhibition\n(§6) All assays are carried out on a robotic system in 96 well plates. The final incubation volume contains TRIS buffer (0.1 M), MgCl2 (5 mM), human liver microsomes (0.5 mg/ml), (S)-Mephenytoin (70 μM) and the test compound at five different concentrations or no compound (high control) in duplicate (e.g. highest concentration 10-50 μM with subsequent serial 1:4 dilutions). Following a short preincubation period, reactions are started with the cofactor (NADPH, 1 mM) and stopped by cooling the incubation down to 8° C. and subsequently by addition of one volume of acetonitrile. An internal standard solution—usually the stable isotope of the formed metabolite—is added after quenching of incubations. Peak area analyte (=metabolite formed) and internal standard is determined by LC-MS/MS. The resulting peak area ratio analyte to internal standard in these incubations is compared to a control activity containing no test compound.\n(§7) If the inhibition of the reaction is already >50% at the lowest concentration of the test compound, the IC50 is assigned “<lowest concentration tested” (usually <0.4 μM). If the inhibition of the reaction is still <50% at the highest concentration of the test compound, the IC50 is assigned “>highest concentration tested” (usually >50 μM)."}, "cytochrome P450 2C8": {"target": "cytochrome P450 2C8 (Homo sapiens (Human), UniProt P10632)", "sequence (P10632 whole entry)": "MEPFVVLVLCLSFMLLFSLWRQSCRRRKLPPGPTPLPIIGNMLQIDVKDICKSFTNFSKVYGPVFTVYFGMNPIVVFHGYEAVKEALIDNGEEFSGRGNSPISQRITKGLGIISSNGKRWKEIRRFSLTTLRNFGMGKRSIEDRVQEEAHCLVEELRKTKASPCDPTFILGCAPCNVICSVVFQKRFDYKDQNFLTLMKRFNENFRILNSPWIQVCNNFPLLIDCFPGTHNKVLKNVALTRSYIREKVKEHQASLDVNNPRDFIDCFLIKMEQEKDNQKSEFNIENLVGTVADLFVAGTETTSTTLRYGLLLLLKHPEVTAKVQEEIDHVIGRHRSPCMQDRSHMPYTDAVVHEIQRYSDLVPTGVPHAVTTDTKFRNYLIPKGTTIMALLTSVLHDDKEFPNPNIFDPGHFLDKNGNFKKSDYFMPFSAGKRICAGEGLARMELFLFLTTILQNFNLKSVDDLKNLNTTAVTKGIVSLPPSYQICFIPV", "experiment": "Cytochrome P450 2C8 inhibition", "type": "in vitro ADME", "conditions": "human liver microsomes, Amodiaquine deethylation; read-out: IC50 CYP2C8 inhibition", "protocol": "Assay for Determination of Cytochrome P450 2C8 Inhibition\nas §6, with “(0.05” for “(0.5”, “Amodiaquine (1” for “(S)-Mephenytoin (70”\nas §7"}, "Caco-2 cells": {"system": "Caco-2 cells", "experiment": "Drug transport across human Caco-2 cells", "type": "in vitro ADME", "conditions": "pH 7.2, 37° C.; for PEAB: apical-to-basal; for PEBA: basal-to-apical", "text": "as §1, §2, §3, §4, §5"}}, "note": "pIC50: −log10 of the molar value.", "data": [{"smiles": "CC(=O)C1=C(C)N(c2cccc(C(F)(F)F)c2)C(=O)N(C)[C@@H]1c1ccc(C#N)cc1-c1ccn(C)c(=O)c1", "note": "[Example 17, 4-[(R)-5-Acetyl-3,6-dimethyl-2-oxo-1-(3-trifluoromethyl-phenyl)-1,2,3,4-tetrahydro-pyrimidin-4-yl]-3-(1-methyl-2-oxo-1,2-dihydro-pyridin-4-yl)-benzonitrile]", "values": [{"measurement": "pIC50", "setting": "neutrophil elastase", "result": "> 9.00"}, {"measurement": "Papp A→B at 10 μM", "setting": "[1]", "result": 11, "unit": "×10⁻⁶ cm/s"}, {"measurement": "Papp B→A at 10 μM", "setting": "[1]", "result": 114, "unit": "×10⁻⁶ cm/s"}]}, {"smiles": "CC(=O)C1=C(C)N(c2cccc(C(F)(F)F)c2)C(=O)N(C)[C@@H]1c1ccc(C#N)cc1-c1ccc(=O)n(C)c1", "note": "[Example 16, 4-[(R)-5-Acetyl-3,6-dimethyl-2-oxo-1-(3-trifluoromethyl-phenyl)-1,2,3,4-tetrahydro-pyrimidin-4-yl]-3-(1-methyl-6-oxo-1,6-dihydro-pyridin-3-yl)-benzonitrile]", "values": [{"measurement": "pIC50", "setting": "neutrophil elastase", "result": "> 9.00"}, {"measurement": "pIC50", "setting": "[2]", "result": "< 4.52"}, {"measurement": "pIC50", "setting": "cytochrome P450 2C19", "result": "< 4.30"}, {"measurement": "Papp A→B at 10 μM", "setting": "[1]", "result": 12, "unit": "×10⁻⁶ cm/s"}, {"measurement": "Papp B→A at 10 μM", "setting": "[1]", "result": 120, "unit": "×10⁻⁶ cm/s"}, {"measurement": "pIC50", "setting": "cytochrome P450 2C8", "result": "< 4.30"}]}, {"smiles": "CC(=O)C1=C(C)N(c2cccc(C(F)(F)F)c2)C(=O)N(C)C1c1ccc(C#N)cc1C(=O)NCCF", "note": "(stereo not shown) [Example 1.10]", "values": [{"measurement": "pIC50", "setting": "neutrophil elastase", "result": "> 9.00"}, {"measurement": "PEAB", "setting": "Caco-2 cells", "result": 39, "unit": "×10⁻⁶ cm/s"}, {"measurement": "PEBA", "setting": "Caco-2 cells", "result": 78, "unit": "×10⁻⁶ cm/s"}]}, {"smiles": "CC(=O)C1=C(C)N(c2cccc(C(F)(F)F)c2)C(=O)N(C)C1c1ccc(C#N)cc1C(=O)NCC(C)(C)O", "note": "(stereo not shown) [Example 1.22]", "values": [{"measurement": "pIC50", "setting": "neutrophil elastase", "result": 8.85}, {"measurement": "Papp A→B at 10 μM", "setting": "[1]", "result": 7.8, "unit": "×10⁻⁶ cm/s"}, {"measurement": "Papp B→A at 10 μM", "setting": "[1]", "result": 81, "unit": "×10⁻⁶ cm/s"}]}, {"smiles": "CC(=O)C1=C(C)N(c2cccc(C(F)(F)F)c2)C(=O)N(C)C1c1ccc(C#N)cc1C(=O)N1CCn2ncnc2C1", "note": "(stereo not shown) [Example 1.73]", "values": [{"measurement": "pIC50", "setting": "neutrophil elastase", "result": "> 9.00"}, {"measurement": "Papp A→B at 10 μM", "setting": "[1]", "result": 5.1, "unit": "×10⁻⁶ cm/s"}, {"measurement": "Papp B→A at 10 μM", "setting": "[1]", "result": 92, "unit": "×10⁻⁶ cm/s"}]}, {"smiles": "CNC(=O)c1cc(C#N)ccc1[C@@H]1C(C(C)=O)=C(C)N(c2cccc(C(F)(F)F)c2)C(=O)N1C", "note": "[Example 13.1]", "values": [{"measurement": "pIC50", "setting": "neutrophil elastase", "result": "> 9.00"}, {"measurement": "pIC50", "setting": "[2]", "result": "< 4.52"}, {"measurement": "hERG inhibition", "setting": "[2]; @ 10 μM", "result": "(7% @ 10 μM)"}, {"measurement": "pIC50", "setting": "cytochrome P450 2C19", "result": "< 4.30"}, {"measurement": "PEAB", "setting": "Caco-2 cells", "result": 33, "unit": "×10⁻⁶ cm/s"}, {"measurement": "PEBA", "setting": "Caco-2 cells", "result": 80, "unit": "×10⁻⁶ cm/s"}, {"measurement": "pIC50", "setting": "cytochrome P450 2C8", "result": "< 4.30"}]}, {"smiles": "CC(=O)C1=C(C)N(c2cccc(C(F)(F)F)c2)C(=O)N(C)C1c1ccc(C#N)cc1C(=O)NC1CC1", "note": "(stereo not shown) [Example 1.8]", "values": [{"measurement": "pIC50", "setting": "neutrophil elastase", "result": "> 9.00"}, {"measurement": "PEAB", "setting": "Caco-2 cells", "result": 44, "unit": "×10⁻⁶ cm/s"}, {"measurement": "PEBA", "setting": "Caco-2 cells", "result": 74, "unit": "×10⁻⁶ cm/s"}]}, {"smiles": "CC(=O)C1=C(C)N(c2cccc(C(F)(F)F)c2)C(=O)N(C)C1c1ccc(C#N)cc1C(=O)NCC#N", "note": "(stereo not shown) [Example 1.6]", "values": [{"measurement": "pIC50", "setting": "neutrophil elastase", "result": "> 9.00"}, {"measurement": "PEAB", "setting": "Caco-2 cells", "result": 10, "unit": "×10⁻⁶ cm/s"}, {"measurement": "PEBA", "setting": "Caco-2 cells", "result": 81, "unit": "×10⁻⁶ cm/s"}]}]}
